Here are results for 25 compounds from patent US20230348424A1, “HETEROCYCLIC COMPOUNDS AND METHODS OF USE” (Schrödinger, Inc., priority 2022, published 2023).

The structures appear in SMILES notation. pIC50: −log10 of the molar value.

SOS1:KRAS (G12C) interaction, sequence (Q07889 564-1049, stated change not applied): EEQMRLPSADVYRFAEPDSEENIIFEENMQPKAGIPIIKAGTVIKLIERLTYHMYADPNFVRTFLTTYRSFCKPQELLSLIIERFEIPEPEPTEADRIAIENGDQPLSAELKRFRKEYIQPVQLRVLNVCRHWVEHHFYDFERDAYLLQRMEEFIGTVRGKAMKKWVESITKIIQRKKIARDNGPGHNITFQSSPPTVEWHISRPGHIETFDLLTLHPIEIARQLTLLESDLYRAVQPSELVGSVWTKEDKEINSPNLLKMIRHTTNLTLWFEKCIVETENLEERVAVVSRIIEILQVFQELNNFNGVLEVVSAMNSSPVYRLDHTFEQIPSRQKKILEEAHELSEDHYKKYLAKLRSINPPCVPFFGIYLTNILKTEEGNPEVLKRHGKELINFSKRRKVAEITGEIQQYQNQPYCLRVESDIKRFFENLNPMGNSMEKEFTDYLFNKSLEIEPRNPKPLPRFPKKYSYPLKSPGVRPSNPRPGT

In the test the target is SOS1:KRAS (G12C) interaction (Homo sapiens (Human), UniProt Q07889). As to the kind of experiment: SOS1 KRas(G12C) FRET Assay. Conditions: 0.5 nM His10-SOS1 (res. 564-1049), 2.5 nM GST-KRAS G12C (res. 1-169), 2 hrs at RT. The class given is binding. In outline:
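GST-KRAS G12C (res. 1-169) at 2.5 nM and His10-SOS1 (res. 564-1049) at 0.5 nM, final, in PBS with 0.1% BSA, 5 mM MgCl2, 100 mM KF, 5 mM DTT and 0.5% DMSO. After 2 h at RT, FRET read at 665/615 nm and normalized to DMSO and no-SOS1 controls. IC50 by non-linear regression.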
As usually defined, the pIC50 is −log10 of the IC50, conventionally taken in molar units. Read a high pIC50 as a small IC50. With `C[C@@H](NC(=O)c1cn(C2(C(F)(F)F)CC2)c(=O)cc1NC1CCN(C)CC1)c1cccc(C(F)F)c1F` [Example 75, (R)-N-(1-(3-(difluoromethyl)-2-fluorophenyl)ethyl)-4-((1-methylpiperidin-4-yl)amino)-6-oxo-1-(1-(trifluoromethyl)cyclopropyl)-1,6-dihydropyridine-3-carboxamide], the pIC50 is 7.81.

In turn, `C[C@@H](NC(=O)c1cn([C@H]2CC23CC3)c(=O)cc1N[C@H]1[C@@H]2CN(C)C[C@@H]21)c1cccc(C(C)(F)F)c1F` (single isomer, unassigned) [Example 255] had a pIC50 of 7.57.

`COC12CC(CNc3cc(=O)n(C45CC(C4)C5)cc3C(=O)N[C@H](C)c3cccc(C(F)F)c3F)(C1)C2` [Example 262, (R)-1-(bicyclo[1.1.1]pentan-1-yl)-N-(1-(3-(difluoromethyl)-2-fluorophenyl)ethyl)-4-(((3-methoxybicyclo[1.1.1]pentan-1-yl)methyl)amino)-6-oxo-1,6-dihydropyridine-3-carboxamide]: the pIC50 was 6.94.

The compound `Cc1c([C@@H](C)NC(=O)c2cn(C3CCOCC3)c(=O)cc2NC2CCN(CC(F)(F)F)CC2)cccc1C(F)(F)F` [Example 15, (R)-N-(1-(2-methyl-3-(trifluoromethyl)phenyl)ethyl)-6-oxo-1-(tetrahydro-2H-pyran-4-yl)-4-((1-(2,2,2-trifluoroethyl)piperidin-4-yl)amino)-1,6-dihydropyridine-3-carboxamide] showed a pIC50 of 6.07.

Turning to `Cc1c([C@@H](C)NC(=O)c2cn(C3CCOCC3)c(=O)c(Br)c2NC2CCN(C)CC2)cccc1C(F)(F)F` [Example 17, (R)-5-bromo-N-(1-(2-methyl-3-(trifluoromethyl)phenyl)ethyl)-4-((1-methylpiperidin-4-yl)amino)-6-oxo-1-(tetrahydro-2H-pyran-4-yl)-1,6-dihydropyridine-3-carboxamide], the pIC50 is 6.14.

As to `C[C@@H](NC(=O)c1cn(C2(C)CN(C(=O)C3CC3)C2)c(=O)cc1NC1CCN(C)CC1)c1cccc(C(F)F)c1F` [Example 78, (R)-1-(1-(cyclopropanecarbonyl)-3-methylazetidin-3-yl)-N-(1-(3-(difluoromethyl)-2-fluorophenyl)ethyl)-4-((1-methylpiperidin-4-yl)amino)-6-oxo-1,6-dihydropyridine-3-carboxamide], the negative-log IC50 (pIC50) is 9.05.

`C[C@@H](NC(=O)c1cn([C@@H]2CCC2(F)F)c(=O)cc1N[C@H]1[C@@H]2CC[C@H]1CN(C)C2)c1cccc(C(F)F)c1F` [Example 213, 1-((R)-2,2-difluorocyclobutyl)-N-((R)-1-(3-(difluoromethyl)-2-fluorophenyl)ethyl)-4-(((1R,5S,8r)-3-methyl-3-azabicyclo[3.2.1]octan-8-yl)amino)-6-oxo-1,6-dihydropyridine-3-carboxamide] had a pIC50 of 6.83.

Take `C[C@@H](NC(=O)c1cn(C2C(F)(F)C23CC3)c(=O)cc1N[C@H]1[C@@H]2CN(C)C[C@@H]21)c1cccc(C(F)F)c1F` (stereo partly drawn) [Example 206, N-((R)-1-(3-(difluoromethyl)-2-fluorophenyl)ethyl)-1-(2,2-difluorospiro[2.2]pentan-1-yl)-4-(((1R,5S,6s)-3-methyl-3-azabicyclo[3.1.0]hexan-6-yl)amino)-6-oxo-1,6-dihydropyridine-3-carboxamide]: the pIC50 was 6.86.

For `C[C@@H](NC(=O)c1cn(C2(C(F)F)CC2)c(=O)cc1N[C@H]1[C@@H]2CN(C)C[C@@H]21)c1cccc(C(F)(F)c2ccncc2)c1F` [Example 174, N-((R)-1-(3-(difluoro(pyridin-4-yl)methyl)-2-fluorophenyl)ethyl)-1-(1-(difluoromethyl)cyclopropyl)-4-(((1R,5S,6s)-3-methyl-3-azabicyclo[3.1.0]hexan-6-yl)amino)-6-oxo-1,6-dihydropyridine-3-carboxamide], the pIC50 is 5.93.

`Cc1c([C@@H](C)NC(=O)c2cn(C3CCOCC3)c(=O)cc2SC2CCNCC2)cccc1C(F)(F)F` [Example 157, (R)-N-(1-(2-methyl-3-(trifluoromethyl)phenyl)ethyl)-6-oxo-4-(piperidin-4-ylthio)-1-(tetrahydro-2H-pyran-4-yl)-1,6-dihydropyridine-3-carboxamide] showed a pIC50 of 6.66.

With `Cc1c([C@@H](C)NC(=O)c2cn(C3CCOCC3)c(=O)cc2NCC23CCCN2CCC3)cccc1C(F)(F)F` [Example 11, (R)-N-(1-(2-methyl-3-(trifluoromethyl)phenyl)ethyl)-6-oxo-4-(((tetrahydro-1H-pyrrolizin-7a(5H)-yl)methyl)amino)-1-(tetrahydro-2H-pyran-4-yl)-1,6-dihydropyridine-3-carboxamide], the negative-log IC50 (pIC50) is 7.42.

Turning to `Cc1c([C@@H](C)NC(=O)c2cn(C3CCOCC3)c(=O)cc2NC[C@H]2CC[C@H](N(C)C)CC2)cccc1C(F)(F)F` [Example 301, 4-((((1r,4R)-4-(dimethylamino)cyclohexyl)methyl)amino)-N-((R)-1-(2-methyl-3-(trifluoromethyl)phenyl)ethyl)-6-oxo-1-(tetrahydro-2H-pyran-4-yl)-1,6-dihydropyridine-3-carboxamide], the pIC50 is 7.34.

With `Cc1c([C@@H](C)NC(=O)c2cn(C3CCOCC3)c(=O)cc2N[C@@H]2CCN(C)C3(CC3)C2)cccc1C(F)(F)F` (single isomer, unassigned) [Example 40], the pIC50 was 7.93.

The compound `Cc1c([C@@H](C)NC(=O)c2cn(C3CCOCC3)c(=O)cc2N[C@H]2CCCCN(C)C2)cccc1C(F)(F)F` [Example 35, N-((R)-1-(2-methyl-3-(trifluoromethyl)phenyl)ethyl)-4-(((S)-1-methylazepan-3-yl)amino)-6-oxo-1-(tetrahydro-2H-pyran-4-yl)-1,6-dihydropyridine-3-carboxamide] had a pIC50 of 7.36.

On to `C[C@@H](NC(=O)c1cn([C@@H]2CCC2(F)F)c(=O)cc1N[C@@H]1[C@@H]2CC[C@H]1CN(C)C2)c1cccc(C(F)F)c1F` [Example 212, 1-((R)-2,2-difluorocyclobutyl)-N-((R)-1-(3-(difluoromethyl)-2-fluorophenyl)ethyl)-4-(((1R,5S,8s)-3-methyl-3-azabicyclo[3.2.1]octan-8-yl)amino)-6-oxo-1,6-dihydropyridine-3-carboxamide], for which the pIC50 is 7.42.

Compound `C[C@@H](NC(=O)c1cn(C23CC(C2)C3)c(=O)cc1NC1CCN(C)CC1)c1cccc(C(F)F)c1F` [Example 217, (R)-1-(bicyclo[1.1.1]pentan-1-yl)-N-(1-(3-(difluoromethyl)-2-fluorophenyl)ethyl)-4-((1-methylpiperidin-4-yl)amino)-6-oxo-1,6-dihydropyridine-3-carboxamide] had a pIC50 of 8.13.

For `C[C@@H](NC(=O)c1cn(C2(C(F)F)CC2)c(=O)cc1N[C@@]12C[C@@H]1CN(C)C2)c1cccc(C(F)F)c1F` [Example 228, N-((R)-1-(3-(difluoromethyl)-2-fluorophenyl)ethyl)-1-(1-(difluoromethyl)cyclopropyl)-4-(((1S,5R)-3-methyl-3-azabicyclo[3.1.0]hexan-1-yl)amino)-6-oxo-1,6-dihydropyridine-3-carboxamide], the pIC50 was 7.19.

`C[C@@H](NC(=O)c1cn(C2(C(F)F)CC2)c(=O)cc1N[C@H]1CN2CCC1(F)CC2)c1cccc(C(F)F)c1F` [Example 186, N-((R)-1-(3-(difluoromethyl)-2-fluorophenyl)ethyl)-1-(1-(difluoromethyl)cyclopropyl)-4-(((S)-4-fluoroquinuclidin-3-yl)amino)-6-oxo-1,6-dihydropyridine-3-carboxamide] gave a pIC50 of 7.56.

In the case of `C[C@@H](NC(=O)c1cn(C2(CF)CC2)c(=O)cc1NC1CCN(C)CC1)c1cccc(C(F)F)c1F` [Example 77, (R)-N-(1-(3-(difluoromethyl)-2-fluorophenyl)ethyl)-1-(1-(fluoromethyl)cyclopropyl)-4-((1-methylpiperidin-4-yl)amino)-6-oxo-1,6-dihydropyridine-3-carboxamide], the pIC50 was 7.86.

`C[C@@H](NC(=O)c1cn([C@@H]2CCOC[C@H]2F)c(=O)cc1N[C@H]1[C@@H]2C[C@H]1CN(C)C2)c1cccc(C(F)F)c1F` [Example 243, N-((R)-1-(3-(difluoromethyl)-2-fluorophenyl)ethyl)-1-((3S,4R)-3-fluorotetrahydro-2H-pyran-4-yl)-4-(((1R,5Sx,6r)-3-methyl-3-azabicyclo[3.1.1]heptan-6-yl)amino)-6-oxo-1,6-dihydropyridine-3-carboxamide] gave a pIC50 of 8.20.

As for `C[C@@H](NC(=O)c1cn(C2(C(F)(F)F)CCC2)c(=O)cc1NC1CCN(C)CC1)c1cccc(C(F)F)c1F` [Example 225, (R)-N-(1-(3-(difluoromethyl)-2-fluorophenyl)ethyl)-4-((1-methylpiperidin-4-yl)amino)-6-oxo-1-(1-(trifluoromethyl)cyclobutyl)-1,6-dihydropyridine-3-carboxamide], the pIC50 is 7.86.

`C[C@@H](NC(=O)c1cn(C2(C(F)F)CC2)c(=O)cc1NC1CCN(C2(C)CC2)CC1)c1cccc(C(F)F)c1F` [Example 288, (R)-N-(1-(3-(difluoromethyl)-2-fluorophenyl)ethyl)-1-(1-(difluoromethyl)cyclopropyl)-4-((1-(1-methylcyclopropyl)piperidin-4-yl)amino)-6-oxo-1,6-dihydropyridine-3-carboxamide]: the pIC50 was 7.63.

On to `C[C@@H](NC(=O)c1cn(C2(C(F)F)CC2)c(=O)cc1N[C@H]1CCN2CCC[C@@H]2C1)c1cccc(C(F)F)c1F` (single isomer, unassigned) [Example 304], for which the pIC50 was 7.59.

In turn, `C[C@@H](NC(=O)c1cn(C2(C(F)F)CC2)c(=O)cc1N[C@H]1CCN2CCC[C@H]2C1)c1cccc(C(F)F)c1F` (single isomer, unassigned) [Example 305] had a negative-log IC50 (pIC50) of 7.63.

In turn, `COc1ccc([C@@H](C)NC(=O)c2cn(C3(C(F)F)CC3)c(=O)cc2NC2CCN(C)CC2)c(F)c1C(F)(F)F` (single isomer, unassigned) [Example 165] showed a pIC50 of 5.10.
